Entries after “also recorded” stand apart in the source; their conditions may differ. Like-named read-outs stand apart in the source and are kept apart here.
Assays:
[1] = for undesired decomposition / byproducts of polyunsaturated fatty acid (arachidonic acid) with added stimulator: aqueous medium; for undesired decomposition / byproducts of polyunsaturated fatty acid (arachidonic acid) with added stimulator / effect of solvent used instead of water on formation of undesired byproducts: result in words; for effect of solvent used instead of water on formation of undesired byproducts: fatty acid with stimulator; for Stability (% of remaining arachidonic acid by Method 1): 24 h 37° C.; for Stabilization (% remaining unsaturated fatty acid by Method 1): 1440 min
Description: Method 1: Investigation of the Stability of Unsaturated Fatty Acids in the Formulations
The stabilizing action of substances on polyunsaturated fatty acids was investigated as follows:
Test A for Water-Soluble Substances:
0.125 mg of unsaturated fatty acid or Na salt (see tables) (sodium arachidonate, from Sigma, Munich, Germany) is dissolved in 0.05 ml of water. 0.2 ml of aqueous solution which contains 2 mg of stabilizer and can additionally contain 2 mg of stimulator is mixed in (cf. Table 1), 0.1 ml is then taken out immediately, extracted and analysed (see below). Further processing according to modification 1 or 2.
Modification 1 for Aqueous Solutions
After 24 hours incubation at 37° C., 0.1 ml is again taken, extracted and analysed (see below).
Modification 2 for Solid Mixtures (Lyophilisates)
The test solution is lyophilized, the lyophilisate is incubated for 24 hours at 37° C. and then dissolved again in the previous quantity of water, and 0.1 ml is taken, extracted and analysed (see below).
Test B for Water-Insoluble Substances:
0.125 mg of unsaturated fatty acid (arachidonic acid, 5,8,11,14,17-eicosapentaenoic acid or 8,11,14-eicosatrienoic acid, from Sigma, Munich) is dissolved in 0.05 ml of ethanol or dimethyl sulfoxide. 0.2 ml of ethanol (or dimethyl sulfoxide) which contains 2 mg of stabilizer and can additionally contain 2 mg of the stimulator (cf. Table 1) is added thereto, and 0.1 ml is taken immediately and, as below, extracted and analysed. Further treatment according to modification 1 or 2.
Modification 1 for Solutions
After 24 hours' incubation at 37° C., 0.1 ml is again taken, mixed with 0.1 ml of water, extracted and analysed.
Modification 2 for Solid Mixtures
The remaining solution is freed of solvent, incubated for 24 hours at 37° C. and then dissolved again in 0.15 ml of solvent, and 0.1 ml is taken, mixed with 0.1 ml of water, extracted and analysed.
0.05 ml of 1.2M aqueous citric acid solution is added to the samples obtained, and the samples are extracted with twice 0.5 ml of ethyl acetate, the ethyl acetate is removed from the combined extracts and the residue is dissolved in 0.8 ml of methanol and analysed by means of high-pressure liquid chromatography (HPLC) (Rad Pak C-18 column, 100×8 mm, from Waters, Konigstein, Germany, 1.5 ml/minute, solvent 800 ml of methanol, 200 ml of water and 0.1 ml of glacial acetic acid). The separation is monitored with a commercially available UV detector at 206 nm.
The prostaglandins PGE2, PGF2 alpha and PGD2 as products from arachidonic acid where quantified by means of method 2, and the sum was related as "total prostaglandin" to 100%. The quantity of "total prostaglandin" formed without the addition of a stimulator was set at f=1; the quantity formed after stimulation was related thereto. f=2 or f=3 therefore means twice or three times the stimulation under the conditions of method 2. The stability of the sample was investigated by means of method 1 (right-hand column). […] Values greater than 25-28% therefore represent a stabilization, and values smaller than 25-28% represent a destabilization. Example No. 1 was carried out without a stimulator.

[2] = molecular target: T1, enzyme (from seminal vesicles of sheep) (Ovis aries, UniProt P05979); details: for PGD2 % / PGE2 % / PGF2alpha %: share of total prostaglandin (=100%)
T1 sequence (P05979 25-600): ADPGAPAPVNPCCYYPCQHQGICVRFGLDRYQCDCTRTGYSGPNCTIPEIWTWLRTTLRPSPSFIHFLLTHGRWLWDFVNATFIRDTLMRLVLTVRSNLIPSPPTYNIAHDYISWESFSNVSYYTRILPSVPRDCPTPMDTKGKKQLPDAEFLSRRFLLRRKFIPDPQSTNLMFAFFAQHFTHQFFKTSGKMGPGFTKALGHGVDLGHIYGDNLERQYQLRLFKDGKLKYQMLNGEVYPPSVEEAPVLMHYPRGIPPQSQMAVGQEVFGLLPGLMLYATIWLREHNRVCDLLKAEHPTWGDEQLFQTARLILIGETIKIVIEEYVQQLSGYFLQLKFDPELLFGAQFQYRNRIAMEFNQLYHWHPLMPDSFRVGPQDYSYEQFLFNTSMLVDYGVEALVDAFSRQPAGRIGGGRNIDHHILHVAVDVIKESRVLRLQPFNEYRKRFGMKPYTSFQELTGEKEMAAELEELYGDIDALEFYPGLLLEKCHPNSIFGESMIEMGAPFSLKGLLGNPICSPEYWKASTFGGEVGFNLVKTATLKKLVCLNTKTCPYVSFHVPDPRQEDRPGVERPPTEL
Description: Method 2: Prostaglandin Synthesis
0.3 ml of 0.03M potassium phosphate buffer of pH=8.0 contains 0.5 mg of enzyme (from seminal vesicles of sheep) (Biochemistry 10 (1971) 2372) or homogenate of the inner kidney medulla (Life Sciences 26 (1980) 765), 2.75 μg of ^14 C-arachidonic acid (0.5 μCi) and 0.5 mg of stimulator, and, if appropriate, 0.5 mg of stabilizer substance (see Table 1). After 10 minutes' incubation at 37° C., the reaction is stopped with 0.05 ml of 1.2M citric acid and the mixture is extracted with twice 0.5 ml of ethyl acetate, the combined extracts are freed of solvent, and the residue is dissolved in 0.2 ml of methanol, diluted 1:1 with water and separated by HPLC (nucleosil C-18 column, 125×4.6 mm, from Bischoff, Leonberg, Germany, solvent 300 ml of acetonitrile, 700 ml of water and 1 ml of glacial acetic acid and after 30 minutes pure methanol). The separation of the radioactive fractions is followed by a monitor (LB 504 from Berthold, Wildbad, Germany). The products formed, such as 6-keto-prostaglandin F2alpha, prostaglandin E2, prostaglandin F2alpha and prostaglandin D2, are separated under these conditions.
The prostaglandins PGE2, PGF2 alpha and PGD2 as products from arachidonic acid where quantified by means of method 2, and the sum was related as "total prostaglandin" to 100%. The quantity of "total prostaglandin" formed without the addition of a stimulator was set at f=1; the quantity formed after stimulation was related thereto. f=2 or f=3 therefore means twice or three times the stimulation under the conditions of method 2. The stability of the sample was investigated by means of method 1 (right-hand column). […] Values greater than 25-28% therefore represent a stabilization, and values smaller than 25-28% represent a destabilization. Example No. 1 was carried out without a stimulator. […] The substances test with respect to stabilization (see Method 1 for quantities) were: A) aqueous solution without stabilizer addition, B) ethanolic solution without further addition, C) pyridine solution, D) with rutin, predissolved in dimethyl sulfoxide, dimethyl sulfoxide then stripped off, E) like B) with lecithin, ethanol stripped off, F) like A) with cytochrome c from horse heart (from Boehringer, Mannheim, Germany), G) like A) with methemoglobin (human) (from Sigman, Munich, Germany), H) like A) with bovine serum albumin (from Calbiochem, Frankfurt, Germany), J) like A) or B), but solvent stripped off, K) like J) with cytochrome c, L) like J) with hemoglobin (human) (from Behringwerke, Marburg, Germany), and M) like J) with human serum albumin (from Behringwerke, Marburg, Germany).

[3] = A) aqueous solution without stabilizer addition
[4] = B) ethanolic solution without further addition
[5] = J) like A) or B), but solvent stripped off
[6] = M) like J) with human serum albumin
[7] = H) like A) with bovine serum albumin

N[C@@H](Cc1c[nH]c2ccc(O)cc12)C(=O)O [5-hydroxytryptophan, reference compound]
undesired decomposition / byproducts of polyunsaturated fatty acid (arachidonic acid) with added stimulator [1]: considerably accelerated

CCC(C)O (stereo not drawn) [Example 2-butanol, 2-butanol]
effect of solvent used instead of water on formation of undesired byproducts [1]: additional destabilizing effect

NC(Cc1ccc(O)cc1)C(=O)O (stereo not drawn) [Example 6]
Stability (% of remaining arachidonic acid by Method 1) [1, 3]: 91%
Stability (% of remaining arachidonic acid by Method 1) [1, 4]: 100%
Stability (% of remaining arachidonic acid by Method 1) ([1]; C) pyridine solution): 67%
Stability (% of remaining arachidonic acid by Method 1) [1, 5]: 98%
Stability (% of remaining arachidonic acid by Method 1) ([1]; K) like J) with cytochrome c): 100%
Stability (% of remaining arachidonic acid by Method 1) [1, 6]: 100%
PGD2 % ([2]; Table 1): 17%
PGE2 % ([2]; Table 1): 81%
PGF2alpha % ([2]; Table 1): 2%

NCCc1ccc(O)c(O)c1 [Example 10]
Stability (% of remaining arachidonic acid by Method 1) [1, 3]: 17%
Stability (% of remaining arachidonic acid by Method 1) [1, 4]: 95%
Stability (% of remaining arachidonic acid by Method 1) ([1]; C) pyridine solution): 9%
Stability (% of remaining arachidonic acid by Method 1) [1, 7]: 100%
Stability (% of remaining arachidonic acid by Method 1) ([1]; K) like J) with cytochrome c): 98%
Stability (% of remaining arachidonic acid by Method 1) [1, 6]: 100%
PGD2 % ([2]; Table 1): 13%
PGE2 % ([2]; Table 1): 52%
PGF2alpha % ([2]; Table 1): 35%

CC(=O)NC(Cc1ccc(O)cc1)C(N)=O (stereo not drawn) [Example 11]
Stabilization [1]: positive
Stimulation ([2]; Table 1, result in words): positive

O=C(O)C=Cc1ccc(O)c(O)c1 [Example 17]
Stability (% of remaining arachidonic acid by Method 1) [1, 3]: 19%
Stability (% of remaining arachidonic acid by Method 1) ([1]; D) with rutin, predissolved in dimethyl sulfoxide, dimethyl sulfoxide then stripped off): 99%
Stability (% of remaining arachidonic acid by Method 1) ([1]; G) like A) with methemoglobin (human)): 95%
Stability (% of remaining arachidonic acid by Method 1) [1, 7]: 99%
Stability (% of remaining arachidonic acid by Method 1) [1, 5]: 16%
Stability (% of remaining arachidonic acid by Method 1) [1, 6]: 98%
PGD2 % ([2]; Table 1): 17%
PGE2 % ([2]; Table 1): 70%
PGF2alpha % ([2]; Table 1): 13%
relative total prostaglandin f ([2]; seminal vesicle enzyme, 10 min, pH 8): 5.7

OC[C@H]1O[C@@H]2O[C@H]3[C@H](O)[C@@H](O)[C@@H](O[C@H]4[C@H](O)[C@@H](O)[C@@H](O[C@H]5[C@H](O)[C@@H](O)[C@@H](O[C@H]6[C@H](O)[C@@H](O)[C@@H](O[C@H]7[C@H](O)[C@@H](O)[C@@H](O[C@H]1[C@H](O)[C@H]2O)O[C@@H]7CO)O[C@@H]6CO)O[C@@H]5CO)O[C@@H]4CO)O[C@@H]3CO [Example 62, alpha-Dextrin (Cyclohexaamylose)]
Stabilization (% remaining unsaturated fatty acid by Method 1) [1]: 60%

OC[C@H]1O[C@@H]2O[C@H]3[C@H](O)[C@@H](O)[C@@H](O[C@H]4[C@H](O)[C@@H](O)[C@@H](O[C@H]5[C@H](O)[C@@H](O)[C@@H](O[C@H]6[C@H](O)[C@@H](O)[C@@H](O[C@H]7[C@H](O)[C@@H](O)[C@@H](O[C@H]8[C@H](O)[C@@H](O)[C@@H](O[C@H]9[C@H](O)[C@@H](O)[C@@H](O[C@H]1[C@H](O)[C@H]2O)O[C@@H]9CO)O[C@@H]8CO)O[C@@H]7CO)O[C@@H]6CO)O[C@@H]5CO)O[C@@H]4CO)O[C@@H]3CO [Example 64, gamma-Dextrin (Cyclooctaamylose)]
Stabilization (% remaining unsaturated fatty acid by Method 1) [1]: 75%

CNCC(O)c1ccc(O)c(O)c1 (stereo not drawn) [adrenalin, reference compound]
undesired decomposition / byproducts of polyunsaturated fatty acid (arachidonic acid) with added stimulator [1]: considerably accelerated

CCCCC/C=C\C/C=C\C/C=C\C/C=C\CCCC(=O)O [arachidonic acid]
Stability (% of remaining arachidonic acid by Method 1) [1, 3]: 25-28%

C[S+](C)[O-] [dimethyl sulfoxide]
effect of solvent used instead of water on formation of undesired byproducts [1]: do not arise

CCO [ethanol]
effect of solvent used instead of water on formation of undesired byproducts [1]: do not arise

O=C[C@H](O)[C@@H](O)[C@H](O)[C@H](O)CO [glucose, reference compound]
stabilization of aqueous mixtures of unsaturated fatty acid and stimulators [1]: not stabilizing

OCC(O)CO [glycerol]
effect of solvent used instead of water on formation of undesired byproducts [1]: do not arise

Oc1ccc(O)cc1 [hydroquinone, reference compound]
undesired decomposition / byproducts of polyunsaturated fatty acid (arachidonic acid) with added stimulator [1]: markedly greater quantity; also recorded: considerably accelerated

NC[C@H](O)c1ccc(O)c(O)c1 [noradrenalin, reference compound]
undesired decomposition / byproducts of polyunsaturated fatty acid (arachidonic acid) with added stimulator [1]: considerably accelerated

c1ccncc1 [pyridine]
effect of solvent used instead of water on formation of undesired byproducts [1]: additional destabilizing effect

OC[C@@H](O)[C@@H](O)[C@H](O)[C@@H](O)CO [sorbitol, reference compound]
stabilization of aqueous mixtures of unsaturated fatty acid and stimulators [1]: not stabilizing

N[C@@H](Cc1c[nH]c2ccccc12)C(=O)O [tryptophan, reference compound]
undesired decomposition / byproducts of polyunsaturated fatty acid (arachidonic acid) with added stimulator [1]: considerably accelerated

N[C@@H](Cc1ccc(O)cc1)C(=O)O [tyrosine]
undesired decomposition / byproducts of polyunsaturated fatty acid (arachidonic acid) with added stimulator [1]: completely stable

polyethylene glycol
effect of solvent used instead of water on formation of undesired byproducts [1]: do not arise

rhamnoglucose [reference compound]
stabilization of aqueous mixtures of unsaturated fatty acid and stimulators [1]: not stabilizing

Reference: patent US5043328A, “Formulations containing unsaturated fatty acids for the synthesis of prostaglandins and hydroxy-fatty acids in biological systems” (priority 1986, dated 1991)
